Patent US20030199526A1, “Pyrimidine-based compounds useful as GSK-3 inhibitors” (priority 2001, published 2003)
pKi: −log10 of the molar value.

Biological target: T1, GSK-3β (AA 1-420) (Homo sapiens, UniProt P49841)
T1 construct: GSK-3β (AA 1-420)
Assay: Ki determination for the inhibition of GSK-3 (coupled enzyme system)
Type: biochemical
Settings: 20 μM ATP, 300 μM peptide, 20 nM GSK-3β, 30° C.
Protocol: Compounds were screened for their ability to inhibit GSK-3β (AA 1-420) activity using a standard coupled enzyme system [Fox et al. Protein Sci. 7, 2249 (1998)]. Reactions were carried out in a solution containing 100 mM HEPES (pH 7.5), 10 mM MgCl2, 25 mM NaCl, 300 μM NADH, 1 mM DTT and 1.5% DMSO. Final substrate concentrations in the assay were 20 μM ATP (Sigma Chemicals, St Louis, Mo.) and 300 μM peptide (American Peptide, Sunnyvale, Calif.). Reactions were carried out at 30° C. and 20 nM GSK-3β. Final concentrations of the components of the coupled enzyme system were 2.5 mM phosphoenolpyruvate, 300 μM NADH, 30 μg/ml pyruvate kinase and 10 μg/ml lactate dehydrogenase.
An assay stock buffer solution was prepared containing all of the reagents listed above with the exception of ATP and the test compound of interest. The assay stock buffer solution (175 μl) was incubated in a 96 well plate with 5 μl of the test compound of interest at final concentrations spanning 0.002 μM to 30 μM at 30° C. for 10 min. Typically, a 12 point titration was conducted by preparing serial dilutions (from 10 mM compound stocks) with DMSO of the test compounds in daughter plates. The reaction was initiated by the addition of 20 μl of ATP (final concentration 20 μM). Rates of reaction were obtained using a Molecular Devices Spectramax plate reader (Sunnyvale, Calif.) over 10 min at 30° C. The Ki values were determined from the rate data as a function of inhibitor concentration.

T1 sequence (P49841 whole entry, species assumed, the tested form may be a part): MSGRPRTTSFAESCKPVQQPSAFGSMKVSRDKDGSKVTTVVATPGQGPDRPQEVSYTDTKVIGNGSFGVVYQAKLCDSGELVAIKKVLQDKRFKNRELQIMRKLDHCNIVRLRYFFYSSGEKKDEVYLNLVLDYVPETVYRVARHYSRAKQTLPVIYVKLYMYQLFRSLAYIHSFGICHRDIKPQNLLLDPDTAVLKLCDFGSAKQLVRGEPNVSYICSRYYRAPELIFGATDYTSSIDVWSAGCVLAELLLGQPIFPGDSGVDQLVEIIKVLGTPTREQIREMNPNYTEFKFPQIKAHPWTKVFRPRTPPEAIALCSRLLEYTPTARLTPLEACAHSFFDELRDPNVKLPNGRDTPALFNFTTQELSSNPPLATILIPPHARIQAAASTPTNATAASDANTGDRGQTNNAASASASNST

SMILES | pKi
N#Cc1ccc(NCCNc2nc(-c3ccccc3)nc3ccccc23)nc1 [Compound I-9, 6-[2-(2-Phenyl-quinazolin-4-ylamino)-ethylamino]-nicotinonitrile] | > 7.00
N#Cc1ccc(-c2nc(NCCNc3ccc(C#N)cn3)c3ccccc3n2)cc1 [Compound I-19, 6-{2-[2-(4-Cyano-phenyl)-quinazolin-4-ylamino]-ethylamino}-nicotinonitrile] | > 7.00
N#Cc1ccc(NCCNc2nc(-c3ccc(Cl)cc3Cl)nc3ccccc23)cc1 [Compound I-62, 4-{2-[2-(2,4-Dichloro-phenyl)-quinazolin-4-ylamino]-ethylamino}-benzonitrile] | > 7.00
N#Cc1ccc(NCCNc2nc(-c3cc(Cl)ccc3-c3ccccc3)nc3ccccc23)nc1 [Compound I-195, 6-{2-[2-(4-Chloro-biphenyl-2-yl)-quinazolin-4-ylamino]-ethylamino}-nicotinonitrile] | > 7.00
Cc1nc(-c2ccccc2C(F)(F)F)nc(NCCNc2ccc(C#N)cn2)c1C [Compound I-197, 6-{2-[5,6-Dimethyl-2-(2-trifluoromethyl-phenyl)-pyrimidin-4-ylamino]-ethylamino}-nicotinonitrile] | > 7.00
Cc1nc(-c2ccc(Cl)cc2Cl)nc(NCCNc2ccc(C#N)cn2)c1C [Compound I-198, 6-{2-[2-(2,4-Dichloro-phenyl)-5,6-dimethyl-pyrimidin-4-ylamino]-ethylamino}-nicotinonitrile] | > 7.00

Results, then the molecule that gave them:

pKi | SMILES
> 7.00 | N#Cc1ccc(NCCNc2nc(-c3ccc(Cl)cc3Cl)nc3ccccc23)nc1 [Compound I-1, 6-{2-[2-(2,4-Dichloro-phenyl)-quinazolin-4-ylamino]-ethylamino}-nicotinonitrile]
> 7.00 | N#Cc1ccc(NCCNc2nc(-c3ccc(Cl)cc3)nc3ccccc23)nc1 [Compound I-2]
> 7.00 | N#Cc1ccc(NCCNc2nc(-c3ccccc3C(F)(F)F)nc3ccccc23)nc1 [Compound I-8, 6-{2-[2-(Trifluoromethyl-phenyl)-quinazolin-4-ylamino]-ethylamino}-nicotinonitrile]
> 7.00 | N#Cc1ccc(NCCNc2nc(-c3ccccc3Cl)nc3ccccc23)nc1 [Compound I-11, 6-{2-[2-(2-Chloro-phenyl)-quinazolin-4-ylamino]-ethylamino}-nicotinonitrile]
> 7.00 | N#Cc1ccc(NCCNc2nc(-c3ccccc3Cl)nc3cccnc23)nc1 [Compound I-118, 6-{2-[2-(2-Chloro-phenyl)-pyrido[3,2-d]pyrimidin-4-ylamino]-ethylamino}-nicotinonitrile]
> 7.00 | COc1ccccc1-c1nc(NCCNc2ccc(C#N)cn2)c2ccccc2n1 [Compound I-188, 6-{2-[2-(2-Methoxy-phenyl)-quinazolin-4-ylamino]-ethylamino}-nicotinonitrile]
> 7.00 | N#Cc1ccc(NCCNc2nc(-c3ccccc3O)nc3ccccc23)nc1 [Compound I-189, 6-{2-[2-(2-Hydroxy-phenyl)-quinazolin-4-ylamino]-ethylamino}-nicotinonitrile]
> 7.00 | N#Cc1ccc(NCCNc2nc(-c3ccccc3F)nc3ccccc23)nc1 [Compound I-190, 6-{2-[2-(2-Fluoro-phenyl)-quinazolin-4-ylamino]-ethylamino}-nicotinonitrile]
> 7.00 | N#Cc1ccc(NCCNc2nc(-c3ccc(F)cc3F)nc3ccccc23)nc1 [Compound I-191, 6-{2-[2-(2,4-Difluoro-phenyl)-quinazolin-4-ylamino]-ethylamino}-nicotinonitrile]
> 7.00 | Cc1nc(-c2ccccc2Cl)nc(NCCNc2ccc(C#N)cn2)c1C [Compound I-200]
